According to patent publication US4252984A, “Phenol ethers” (Synthelabo, priority 1975, dated 1981):
Like-named read-outs stand apart in the source and are kept apart here.

Tests used:
[1] = target: T1, β1 -adrenergic receptors (Rattus norvegicus, UniProt P18090); assay: Studies on isolated organs: antagonism of isoprenaline-induced tachycardia and increase in contractile force in isolated rat auricles (pA2); set-up: species or system rats; conditions: for Effect on inotropism, ratio of activity to that of metoprolol: isoprenaline contractile force; for Effect on inotropism, ratio of activity to that of metoprolol / Effect on chronotropism, ratio of activity to that of metoprolol: metoprolol = 1.0; for Kb / pA2, effect on chronotropism / pA2, effect on inotropism: 31° C.
T1 construct: from tissue; host or cells: isolated rat auricles (atria)
T1 sequence (P18090 whole entry): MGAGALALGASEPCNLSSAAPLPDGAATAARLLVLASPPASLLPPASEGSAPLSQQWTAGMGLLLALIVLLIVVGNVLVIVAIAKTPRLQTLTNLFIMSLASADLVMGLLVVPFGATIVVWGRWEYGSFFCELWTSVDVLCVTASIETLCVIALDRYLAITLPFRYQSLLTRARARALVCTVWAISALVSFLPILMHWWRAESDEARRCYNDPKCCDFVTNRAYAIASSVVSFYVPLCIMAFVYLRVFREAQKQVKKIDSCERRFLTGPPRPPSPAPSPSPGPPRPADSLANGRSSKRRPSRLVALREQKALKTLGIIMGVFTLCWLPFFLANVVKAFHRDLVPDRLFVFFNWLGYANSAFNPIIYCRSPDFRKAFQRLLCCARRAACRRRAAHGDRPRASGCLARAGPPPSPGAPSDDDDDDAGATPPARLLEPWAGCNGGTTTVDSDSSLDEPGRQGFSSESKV

[2] = in vivo; conditions: mouse, mortality over 5 days, confidence limits: 95%
Procedure: Acute toxicity: The acute toxicity for oral and intravenous administration was evaluated for CD1 male mice of average weight 20 g. The mortality was recorded over a period of 5 days following the administration of the compounds.

[3] = isoprenaline increase in contractile force, read-out: pA2, effect on inotropism (converted)
[4] = intravenous administration, read-out: LD50 intravenous administration
[5] = oral administration, read-out: LD50 oral administration
[6] = isoprenaline increase in contractile force
[7] = isoprenaline tachycardia, read-out: pA2, effect on chronotropism (converted)

Effect on inotropism, ratio of activity to that of metoprolol [1] | Kb [1, 3] [nM] | pA2, effect on chronotropism ([1]; isoprenaline tachycardia) | Effect on chronotropism, ratio of activity to that of metoprolol ([1]; isoprenaline tachycardia) | pA2, effect on inotropism [1, 6] | Kb [1, 7] [nM] | Structure (SMILES) | LD50 at 120 h [2, 4] [mg/kg] | LD50 at 120 h [2, 5] [mg/kg]
0.09 | 132 | 7.11 | 0.3 | – | – | CC(C)NCC(O)COc1ccc(CCSCC2CCC2)cc1 (stereo not shown) [SL D.056, 1-[4-(2-Cyclobutylmethylthio-ethyl)-phenoxy]-3-isopropylamino-propan-2-ol] | – | –
0.02 | 692 | 5.54 | – | – | – | CC(CCc1ccc(F)cc1)NCC(O)COc1ccc(CCOCC2CCC2)cc1 (stereo not shown) [SL E.059] | – | –
– | – | – | – | – | – | CC(C)NCC(O)COc1ccc(CCOCC2CC2)cc1 (stereo not shown) [SL D.212, 1-{4-[2-(Cyclopropylmethoxy)ethyl]-phenoxy}-3-isopropylamino-propan-2-ol] | 37 | 944
1.0 | – | – | 1.9 | 7.94 | 11.7 | CC(C)NCC(O)COc1ccc(CCS(=O)(=O)CC2CCC2)cc1 (stereo not shown) [SL E.060, 1-[4-(2-Cyclobutylmethylsulphonyl-ethyl)phenoxy]-3-isopropylamino-propan-2-ol] | – | –
0.8 | 14.8 | – | 1.3 | – | 17.4 | CC(C)NCC(O)COc1ccc(OCCSCC2CC2)cc1 (stereo not shown) [SL D.299, 1-[4-(2-Cyclopropylmethylthio-ethoxy)-phenoxy]-3-isopropylamino-propan-2-ol] | – | –
0.1 | 89.1 | 7.02 | 0.2 | – | – | CC(C)NCC(O)COc1ccc(CCCOCC2CCC2)cc1 (stereo not shown) [SL E.061] | – | –
2.2 | 5.13 | – | 4.1 | – | 5.62 | CC(C)NCC(O)COc1ccc(OCCOCC2CCC2)cc1 (stereo not shown) [SL E.096, 1-[4-(2-cyclobutylmethoxyethoxy)-phenoxy]-3-isopropylamino-propan-2-ol] | – | –
0.02 | 617 | 6.47 | 0.07 | – | – | CC(CC#N)NCC(O)COc1ccc(CCOCC2CCC2)cc1 (stereo not shown) [SL E.024, 1-[4-(2-Cyclobutylmethoxy-ethyl)-phenoxy]-3-(1-methyl-2-cyano-ethylamino)-propan-2-ol] | – | –
1.00 | 10.7 | – | 4.17 | – | 5.5 | CC(C)NCC(O)COc1ccc(OCCOCC2CCCC2)cc1 (stereo not shown) [SL E.203] | – | –
– | – | – | – | – | – | CC(C)NCC(O)COc1ccc(CCOCC2CCC2)cc1 (stereo not shown) [SL D.254, 1-{4-[2-(Cyclobutylmethoxy)-ethyl]-phenoxy}-3-isopropylamino-propan-2-ol] | 28 | 658
– | – | – | – | – | – | COCCc1ccc(OCC(O)CNC(C)C)cc1 (stereo not shown) [METOPROLOL, 1-[4-(2-methoxy-ethyl)-phenoxy]-3-isopropylamino-propan-2-ol, reference compound] | 62 | 1050
0.08 | 141 | – | 0.1 | – | 162 | CC(C)NCC(O)COc1ccc(OCCS(=O)(=O)CC2CC2)cc1 (stereo not shown) [SL E.155, 1-[4-(2-Cyclopropylmethylsulphonyl-ethoxy)phenoxy]-3-isopropylamino-propan-2-ol] | – | –
0.01 | 1230 | 5.11 | – | – | – | CC(CCc1ccccc1)NCC(O)COc1ccc(CCOCC2CCC2)cc1 (stereo not shown) [SL E.049] | – | –
0.2 | – | – | 0.6 | 7.21 | 37.2 | CC(=O)NCCNCC(O)COc1ccc(CCOCC2CCC2)cc1 (stereo not shown) [SL E.025, 1-[4-(2-Cyclobutylmethoxy-ethyl)-phenoxy]-3-(2-acetylamino-ethylamino)-propan-2-ol] | – | –
– | – | – | – | – | – | CC(C)NCC(O)COc1ccc(COCC2CC2)cc1 (stereo not shown) [SL D.224, 1-[4-(cyclopropylmethoxymethyl)-phenoxy]-3-isopropylamino-propan-2-ol] | 88 | 1400
0.1 | 74.1 | 7.75 | 1.3 | – | – | COc1ccc(CCNCC(O)COc2ccc(CCOCC3CCC3)cc2)cc1OC (stereo not shown) [SL E.111] | – | –
0.4 | 30.2 | 7.44 | 0.6 | – | – | CC(C)NCC(O)COc1ccc(COCC2CCC2)cc1 (stereo not shown) [SL E.080] | – | –

Structure (SMILES) | Effect on inotropism, ratio of activity to that of metoprolol [1] | Kb [1, 3] [nM] | pA2, effect on chronotropism ([1]; isoprenaline tachycardia) | Effect on chronotropism, ratio of activity to that of metoprolol ([1]; isoprenaline tachycardia) | pA2, effect on inotropism [1, 6] | Kb [1, 7] [nM] | LD50 at 120 h [2, 4] [mg/kg] | LD50 at 120 h [2, 5] [mg/kg]
CC(C)NCC(O)COc1ccc(CCOCC2CCCCC2)cc1 (stereo not shown) [SL D.268, 1-{4-[2-(Cyclohexylmethoxy)-ethyl]-phenoxy}-3-isopropylamino-propan-2-ol] | 0.03 | 398 | 6.84 | 0.2 | – | – | 35 | –
CC(C)NCC(O)COc1ccc(CCOCC2CCCC2)cc1 (stereo not shown) [SL D.291] | 0.08 | 148 | 6.89 | 0.2 | – | – | 56 | –
CC(C)(C)NCC(O)COc1ccc(OCC2CC2)cc1 (stereo not shown) [SL D.231, 1-[4-(Cyclopropylmethoxy)-phenoxy]-3-t-butylamino-propan-2-ol] | 0.3 | 33.9 | – | 0.8 | – | 28.8 | 36 | 1200
CC(C)NCC(O)COc1ccc(OCCOCC2CC2)cc1 (stereo not shown) [SL D.177, 1-{4-[2-(cyclopropylmethoxy)-ethoxy]-phenoxy}-3-isopropylamino-propan-2-ol] | 1.1 | 10.7 | – | 2.8 | – | 8.13 | 76 | 610
CC(C)NCC(O)COc1ccc(OCCCC2CC2)cc1 (stereo not shown) [SL D.311, 1-(4-Cyclopropylpropoxy-phenoxy)-3-isopropylamino-propan-2-ol] | 0.2 | 52.5 | – | 0.2 | – | 91.2 | 71 | –
CC(C)(C)NCC(O)COc1ccc(OCCOCC2CC2)cc1 (stereo not shown) [SL D.178, 1-{4-[2-(Cyclopropylmethoxy)-ethoxy]-phenoxy}-3-t-butylamino-propan-2-ol] | 1.0 | 11 | – | 1.4 | – | 20 | 53 | 445
CC(C)NCC(O)COc1ccc(OCC2CC2)cc1 (stereo not shown) [SL D.230, 1-[4-(Cyclopropylmethoxy)-phenoxy]-3-isopropylamino-propan-2-ol] | 2.1 | 5.37 | – | 4.6 | – | 5.01 | 48 | 750
